Earlier results, collected in paper PMC5111556 (Organic & biomolecular chemistry, 2016).

Test system: αvβ3

For Cilengitide, the “αvβ3-targeted antiangiogenic therapy (in words)” value is given as “initial promise”.
